This is an account of results in patent US20250163104A1, “MACROCYCLIC IMMUNOMODULATORS” (priority 2021, published 2025).

As a reminder, the IC50 is the concentration that inhibits the measured activity by half.

Where a SMILES comes first, the peptide text is derived from it. Bridges are numbered along the chain shown (N, C = ends). [ ]: non-standard residue; d: D form. The star is where a group is joined. ξ: configuration not given here. Phe(3-COOH) = N[C@@H](Cc1cccc(C(=O)O)c1)C(=O)O; Phe(4-COOH) = N[C@@H](Cc1ccc(C(=O)O)cc1)C(=O)O; Bip = N[C@@H](Cc1ccc(-c2ccccc2)cc1)C(=O)O; Phe(3-Me) = Cc1cccc(C[C@H](N)C(=O)O)c1; Val(3-OH) = CC(C)(O)[C@H](N)C(=O)O; 4Pal = N[C@@H](Cc1ccncc1)C(=O)O; Cha = N[C@@H](CC1CCCCC1)C(=O)O; Cit = NC(=O)NCCC[C@H](N)C(=O)O; dNle = CCCC[C@@H](N)C(=O)O; Carboxymethyl = O=C(O)C*; Nle = CCCC[C@H](N)C(=O)O; Orn = NCCC[C@H](N)C(=O)O; Dab = NCC[C@H](N)C(=O)O; Dap = NC[C@H](N)C(=O)O; ξPra = C#CCC(N)C(=O)O; Propargyl = C#CC*

This assay addresses T1, human PD-1 / PD-L1-Ig binding on Jurkat cell line over-expressing human PD-1 (Jurkat-PD-1) (Homo sapiens, UniProt Q15116).
T1 construct: expressed in transfected cells; host or cells: Jurkat
Description: Jurkat-PD-1 Cell Binding High-Content Screening Assay (CBA). To be noted: Jurkat-PD-1 cells, PE-labeled PD-L1-Ig 20 nM final; read-out: Jurkat HPD1_PDL1 IC50. It counts as cell-based. In outline: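 Compounds were preincubated with Jurkat-hPD-1 cells in DMEM plus 10% fetal calf serum for 2 h at 37° C. Phycoerythrin-labeled PD-L1-Ig (20 nM final) was then added for 1 hour. Cells were fixed in 4% paraformaldehyde with Hoechst 33342, and bound fluorescence was quantified by high-content imaging.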

T1 sequence (Q15116 25-288): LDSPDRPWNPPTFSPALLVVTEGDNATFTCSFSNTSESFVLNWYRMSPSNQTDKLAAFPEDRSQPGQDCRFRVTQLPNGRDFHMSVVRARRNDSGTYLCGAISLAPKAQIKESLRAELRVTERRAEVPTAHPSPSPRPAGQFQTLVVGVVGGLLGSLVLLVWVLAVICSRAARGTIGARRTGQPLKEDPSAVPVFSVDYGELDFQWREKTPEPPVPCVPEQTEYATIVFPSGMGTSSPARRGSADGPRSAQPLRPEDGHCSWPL

`CC[C@H](C)[C@@H]1NC(=O)[C@H](Cc2ccc(-c3ccccc3)cc2)NC(=O)[C@H](C(C)C)NC(=O)[C@H](Cc2c[nH]c3ccccc23)NC(=O)[C@H](CC(=O)O)NC(=O)[C@H](Cc2ccc(O)cc2)NC(=O)[C@H](CN)NC(=O)CSC[C@@H](C(=O)N[C@@H](C)C(N)=O)NC(=O)[C@H]([C@@H](C)O)NC(=O)[C@H](C(C)C)NC(=O)[C@H](CC2CCCCC2)NC(=O)[C@H](CCN)NC(=O)[C@@H](CC(C)C)NC(=O)[C@H](CCCN)NC1=O` [Compound 1159]: the IC50 came to 8.1 nM.
For `CC(C)C[C@@H]1NC(=O)[C@H](Cc2c[nH]c3ccccc23)NC(=O)[C@H](CC(=O)O)NC(=O)[C@H](Cc2ccc(O)cc2)NC(=O)[C@H](Cc2ccccc2)NC(=O)CSC[C@@H](C(=O)N[C@@H](C)C(N)=O)NC(=O)[C@H]([C@@H](C)O)NC(=O)[C@H](C(C)C)NC(=O)[C@H](CC(C)C)NC(=O)[C@H](CC(N)=O)NC(=O)[C@@H](C)NC(=O)[C@H](CCN)NC(=O)[C@H](C(C)C)NC(=O)[C@H](Cc2ccc(-c3ccccc3)cc2)NC1=O` [Compound 1101] ({CH2CO}-FYDWL[Bip]V[Dab][dA]NLVTCA-NH2; thioether N-14), the concentration for half-maximal inhibition (IC50) turned out to be 127 nM.
The value for `Cc1cccc(C[C@@H]2NC(=O)[C@H](CC(=O)O)NC(=O)[C@H](Cc3ccc(OCC(=O)O)cc3)NC(=O)[C@H](CCN)NC(=O)CSC[C@@H](C(=O)N[C@@H](CCN)C(N)=O)NC(=O)[C@H](CO)NC(=O)[C@H](C(C)(C)O)NC(=O)[C@H](CC3CCCCC3)NC(=O)[C@H](Cc3cnc[nH]3)NC(=O)[C@@H](CC(C)C)NC(=O)[C@H](CCCN)NC(=O)[C@H](Cc3ccc(OCC(=O)O)cc3)NC(=O)[C@H](Cc3ccc(-c4ccccc4)cc3)NC(=O)[C@H](Cc3ccc(OCC(=O)O)cc3)NC2=O)c1` [Compound 2653] ({CH2CO}-[Dab]Y(Carboxymethyl)D[Phe(3-Me)]Y(Carboxymethyl)[Bip]Y(Carboxymethyl)[Orn][dL]H[Cha][Val(3-OH)]SC[Dab]-NH2; thioether N-14) was 7.6 nM.
Consider `CC(C)C[C@H]1NC(=O)[C@H](CN)NC(=O)[C@H](C(C)C)NC(=O)[C@H](Cc2ccc(-c3ccccc3)cc2)NC(=O)[C@H](C(C)C)NC(=O)[C@H](Cc2c[nH]c3ccccc23)NC(=O)[C@H](CC(=O)O)NC(=O)[C@H](Cc2ccncc2)NC(=O)[C@H](CN)NC(=O)CSC[C@@H](C(=O)NCC(N)=O)NC(=O)[C@H](CO)NC(=O)[C@H](C(C)C)NC(=O)[C@H](CC2CCCCC2)NC(=O)[C@H](CC(N)=O)NC1=O` [Compound 1651] ({CH2CO}-[Dap][4Pal]DWV[Bip]V[Dap][dL]N[Cha]VSCG-NH2; thioether N-14), for which the IC50 turned out to be 17.4 nM.
Next, `Cc1cccc(C[C@@H]2NC(=O)[C@H](CC(=O)O)NC(=O)[C@H](Cc3ccc(C(=O)O)cc3)NC(=O)[C@H](Cc3ccncc3)NC(=O)CSC[C@@H](C(=O)N[C@@H](C)C(N)=O)NC(=O)[C@H]([C@@H](C)O)NC(=O)[C@H](C(C)C)NC(=O)[C@H](CC3CCCCC3)NC(=O)[C@H](CCN)NC(=O)[C@@H](Cc3ccccc3)NC(=O)[C@H](CCCN)NC(=O)[C@H](CCC(=O)O)NC(=O)[C@H](Cc3ccc(-c4ccccc4)cc3)NC(=O)[C@H](C(C)C)NC2=O)c1` [Compound 1428] ({CH2CO}-[4Pal][Phe(4-COOH)]D[Phe(3-Me)]V[Bip]E[Orn][dF][Dab][Cha]VTCA-NH2; thioether N-14): 18.4 nM; `CC(C)C[C@@H]1NC(=O)[C@H](Cc2c[nH]c3ccccc23)NC(=O)[C@H](CC(=O)O)NC(=O)[C@H](Cc2cccc(C(=O)O)c2)NC(=O)[C@H](CN)NC(=O)CSC[C@@H](C(=O)NCC(N)=O)NC(=O)[C@H](CO)NC(=O)[C@H](C(C)C)NC(=O)[C@H](CC2CCCCC2)NC(=O)[C@H](CCN)NC(=O)[C@@H](CC(C)C)NC(=O)[C@H](CCCN)NC(=O)[C@H](C(C)C)NC(=O)[C@H](Cc2ccc(-c3ccccc3)cc2)NC1=O` [Compound 2021] ({CH2CO}-[Dap][Phe(3-COOH)]DWL[Bip]V[Orn][dL][Dab][Cha]VSCG-NH2; thioether N-14): 15.1 nM.
Next, `COc1cccc(C[C@@H]2NC(=O)[C@H](CC(=O)O)NC(=O)[C@H](Cc3ccc(OCC(=O)O)cc3)NC(=O)[C@H](Cc3cccnc3)NC(=O)CSC[C@@H](C(=O)N[C@@H](C)C(N)=O)NC(=O)[C@H]([C@@H](C)O)NC(=O)[C@H](C(C)C)NC(=O)[C@H](CC3CCCCC3)NC(=O)[C@H](CCN)NC(=O)[C@@H](CC(C)C)NC(=O)[C@H](CCCN)NC(=O)[C@H](CCC(=O)O)NC(=O)[C@H](Cc3ccc(-c4ccccc4)cc3)NC(=O)[C@H](C(C)C)NC2=O)c1` [Compound 1545]: 17.8 nM.
Next, `C#CCC(NC(=O)[C@H](CCCN)NC(=O)[C@@H]1CSCC(=O)N[C@@H](Cc2ccncc2)C(=O)N[C@@H](Cc2ccc(OCC(=O)O)cc2)C(=O)N[C@@H](CC(=O)O)C(=O)N[C@@H](Cc2c[nH]c3ccccc23)C(=O)N[C@@H](C(C)C)C(=O)N[C@@H](Cc2ccc(-c3ccccc3)cc2)C(=O)N[C@@H]([C@@H](C)CC)C(=O)N[C@@H](CCCN)C(=O)N[C@H](CC(C)C)C(=O)N[C@@H](CCN)C(=O)N[C@@H](CC(C)C)C(=O)N[C@@H](C(C)C)C(=O)N[C@@H]([C@@H](C)O)C(=O)N1)C(N)=O` (stereo partly drawn) [Compound 1766] ({CH2CO}-[4Pal]Y(Carboxymethyl)DWV[Bip]I[Orn][dL][Dab]LVTC[Orn][ξPra]-NH2; thioether N-14): 31.4 nM; `Cc1cccc(C[C@@H]2NC(=O)[C@H](CC(=O)O)NC(=O)[C@H](Cc3ccc(C(=O)O)cc3)NC(=O)[C@H](Cc3ccncc3)NC(=O)CSC[C@@H](C(=O)N[C@H](CC(N)=O)C(N)=O)NC(=O)[C@H]([C@@H](C)O)NC(=O)[C@H](C(C)C)NC(=O)[C@H](CC3CCCCC3)NC(=O)[C@H](CCN)NC(=O)[C@@H](CC(C)C)NC(=O)[C@H](CCCN)NC(=O)[C@H](Cc3ccc(O)cc3)NC(=O)[C@H](Cc3ccc(-c4ccccc4)cc3)NC(=O)[C@H](C(C)C)NC2=O)c1` [Compound 2290] ({CH2CO}-[4Pal][Phe(4-COOH)]D[Phe(3-Me)]V[Bip]Y[Orn][dL][Dab][Cha]VTC[dN]-NH2; thioether N-14): 13.5 nM.
In the case of `CCCC[C@H]1NC(=O)[C@H](CCCN)NC(=O)[C@H](CCCNC(N)=O)NC(=O)[C@H](Cc2ccc(-c3ccccc3)cc2)NC(=O)[C@H](C(C)C)NC(=O)[C@H](Cc2c[nH]c3ccccc23)NC(=O)[C@H](CC(=O)O)NC(=O)[C@H](Cc2ccc(O)cc2)NC(=O)[C@H](CC(N)=O)NC(=O)CSC[C@@H](C(=O)N[C@@H](C)C(N)=O)NC(=O)[C@H]([C@@H](C)O)NC(=O)[C@H](C(C)C)NC(=O)[C@H](CC2CCCCC2)NC(=O)[C@H](CCN)NC1=O` [Compound 1704] ({CH2CO}-NYDWV[Bip][Cit][Orn][dNle][Dab][Cha]VTCA-NH2; thioether N-14), the 50% inhibitory concentration (IC50) worked out at 35.8 nM.
Next, `CC(C)C[C@H]1NC(=O)[C@H](CCCN)NC(=O)[C@H](C(C)C)NC(=O)[C@H](Cc2ccc(-c3ccccc3)cc2)NC(=O)[C@H](C(C)C)NC(=O)[C@H](Cc2c[nH]c3ccccc23)NC(=O)[C@H](CC(=O)O)NC(=O)[C@H](Cc2ccc(OCC(=O)O)cc2)NC(=O)[C@H](CCCCNC(=N)N)NC(=O)CSC[C@@H](C(=O)N[C@@H](C)C(N)=O)NC(=O)[C@H](C(C)O)NC(=O)[C@H](C(C)C)NC(=O)[C@H](CC2CCCCC2)NC(=O)[C@H](Cc2c[nH]cn2)NC1=O` (stereo partly drawn) [Compound 2555]: 19.5 nM; `Cc1cccc(C[C@@H]2NC(=O)[C@H](CC(=O)O)NC(=O)[C@H](Cc3ccc(C(=O)O)cc3)NC(=O)[C@H](CN)NC(=O)CSC[C@@H](C(=O)N[C@@H](C)C(N)=O)NC(=O)[C@H]([C@@H](C)O)NC(=O)[C@H](C(C)C)NC(=O)[C@H](CC(C)C)NC(=O)[C@H](CCN)NC(=O)[C@@H](CC(C)C)NC(=O)[C@H](CCCN)NC(=O)[C@H](C(C)C)NC(=O)[C@H](Cc3ccc(-c4ccccc4)cc3)NC(=O)[C@H](C(C)C)NC2=O)c1` [Compound 1219] ({CH2CO}-[Dap][Phe(4-COOH)]D[Phe(3-Me)]V[Bip]V[Orn][dL][Dab]LVTCA-NH2; thioether N-14): 5.4 nM; `C#CCOc1ccc(C[C@@H]2NC(=O)[C@H](Cc3cccc(C)c3)NC(=O)[C@H](CC(=O)O)NC(=O)[C@H](Cc3ccc(C(=O)O)cc3)NC(=O)[C@H](CCCC)NC(=O)CSC[C@@H](C(=O)N[C@@H](CCN)C(N)=O)NC(=O)[C@H](CCC(=O)O)NC(=O)[C@H](C(C)C)NC(=O)[C@H](CC3CCCCC3)NC(=O)[C@H](CCN)NC(=O)[C@@H](CC(C)C)NC(=O)[C@H](CCCN)NC(=O)[C@H](Cc3ccc(C(=O)O)cc3)NC(=O)[C@H](Cc3ccc(-c4ccccc4)cc3)NC2=O)cc1` [Compound 1842] ({CH2CO}-[Nle][Phe(4-COOH)]D[Phe(3-Me)]Y(Propargyl)[Bip][Phe(4-COOH)][Orn][dL][Dab][Cha]VEC[Dab]-NH2; thioether N-14): 1.2 nM.
Next, `CCCC[C@@H]1NC(=O)[C@H](CCN)NC(=O)[C@@H](CC(C)C)NC(=O)[C@H](CCCN)NC(=O)[C@H]([C@@H](C)CC)NC(=O)[C@H](Cc2ccc(-c3ccccc3)cc2)NC(=O)[C@H](C(C)C)NC(=O)[C@H](Cc2cccc(C)c2)NC(=O)[C@H](CC(=O)O)NC(=O)[C@H](Cc2ccc(C(=O)O)cc2)NC(=O)[C@H](Cc2ccncc2)NC(=O)CSC[C@@H](C(=O)N[C@@H](C)C(N)=O)NC(=O)[C@H]([C@@H](C)O)NC(=O)[C@H](C(C)C)NC1=O` [Compound 1191]: 10 nM; `CC(C)C[C@@H]1NC(=O)[C@H](Cc2c[nH]c3ccccc23)NC(=O)[C@H](CC(=O)O)NC(=O)[C@H](Cc2ccc(O)cc2)NC(=O)[C@H](Cc2ccccc2)NC(=O)CSC[C@@H](C(=O)N[C@@H](C)C(N)=O)NC(=O)[C@H]([C@@H](C)O)NC(=O)[C@H](C(C)C)NC(=O)[C@H](CC(C)C)NC(=O)[C@H](CC(N)=O)NC(=O)[C@@H](C)NC(=O)[C@H](CN)NC(=O)[C@H](C(C)C)NC(=O)[C@H](Cc2ccc(-c3ccccc3)cc2)NC1=O` [Compound 1076] ({CH2CO}-FYDWL[Bip]V[Dap][dA]NLVTCA-NH2; thioether N-14): 68.7 nM.
